The source of these data is the Kinase Knowledgebase extract (Sharma et al. 2016).

This assay has as its target PIK3CA (human) (UniProt P42336). As to the kind of experiment: Assessment of PIK3CA Kinase Activity.

As usually defined, the IC50 is the concentration at which inhibition is half-maximal.

Each structure is given as a SMILES string. Some results are limits rather than exact numbers.

Sequence of PIK3CA (human) (P42336 whole entry, looked up): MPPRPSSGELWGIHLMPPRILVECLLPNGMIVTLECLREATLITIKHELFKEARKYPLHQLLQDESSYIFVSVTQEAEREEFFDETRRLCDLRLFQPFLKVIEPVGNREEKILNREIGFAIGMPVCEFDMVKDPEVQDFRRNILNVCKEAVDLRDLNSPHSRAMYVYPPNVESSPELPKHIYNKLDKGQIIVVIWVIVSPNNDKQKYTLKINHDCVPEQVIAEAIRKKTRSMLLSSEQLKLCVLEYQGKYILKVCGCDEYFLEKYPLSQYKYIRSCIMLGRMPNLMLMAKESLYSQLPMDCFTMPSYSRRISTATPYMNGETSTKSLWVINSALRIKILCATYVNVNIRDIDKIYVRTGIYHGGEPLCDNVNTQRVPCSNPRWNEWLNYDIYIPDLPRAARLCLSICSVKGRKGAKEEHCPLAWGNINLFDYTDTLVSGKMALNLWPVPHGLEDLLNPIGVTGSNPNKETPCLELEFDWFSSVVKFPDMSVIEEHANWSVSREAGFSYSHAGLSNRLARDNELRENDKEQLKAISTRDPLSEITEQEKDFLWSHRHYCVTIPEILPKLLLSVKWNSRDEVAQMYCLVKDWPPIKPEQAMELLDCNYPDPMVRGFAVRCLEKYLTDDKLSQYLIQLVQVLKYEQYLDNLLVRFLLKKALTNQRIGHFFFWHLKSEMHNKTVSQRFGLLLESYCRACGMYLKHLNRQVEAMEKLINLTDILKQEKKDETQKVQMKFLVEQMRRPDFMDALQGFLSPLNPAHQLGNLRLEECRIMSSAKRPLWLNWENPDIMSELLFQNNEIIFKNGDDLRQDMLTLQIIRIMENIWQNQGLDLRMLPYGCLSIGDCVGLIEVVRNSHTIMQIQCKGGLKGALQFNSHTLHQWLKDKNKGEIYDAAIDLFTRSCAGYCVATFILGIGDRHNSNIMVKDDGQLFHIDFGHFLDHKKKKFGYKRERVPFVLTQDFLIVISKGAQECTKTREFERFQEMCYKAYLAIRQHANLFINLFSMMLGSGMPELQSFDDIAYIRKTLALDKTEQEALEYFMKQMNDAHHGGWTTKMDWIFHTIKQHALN

For the molecule `CN(Cc1cc2nc(-c3ccc(N)c(O)c3)nc(N3CCOCC3)c2s1)c1ncc(C(=O)NO)cn1`, the half-inhibitory concentration (IC50) was under 100 nM.
The result for `COCCNc1nc(-c2cccc3[nH]ncc23)nc2cc(CN(C)c3ncc(C(=O)NO)cn3)sc12` reads over 10000 nM.
Consider `CN(Cc1cc2nc(-c3cccc4[nH]ncc34)nc(N3CCNCC3)c2s1)c1ncc(C(=O)NO)cn1`, for which the concentration for half-maximal inhibition (IC50) was over 10000 nM.
The same measure for `CC(O)c1ccc(F)c(-c2nc(N3CCOCC3)c3sc(CN(C)c4ncc(C(=O)NO)cn4)cc3n2)c1` (stereo unspecified): 100 to 1000 nM; for `O=C(C=Cc1cccc(S(=O)(=O)Nc2cc3nc(-c4cccc5[nH]ncc45)nc(N4CCOCC4)c3s2)c1)NO`: under 100 nM; for `O=C(NO)c1ccc2c(ccn2Cc2cc3nc(-c4cccc5[nH]ncc45)nc(N4CCOCC4)c3s2)c1`: over 10000 nM.
The same measure for `Cn1cc(-c2nc(N3CCOCC3)c3sc(CN(CCO)c4ncc(C(=O)NO)cn4)cc3n2)cn1`: 100 to 1000 nM; for `COc1ncc(-c2nc(N3CCOCC3)c3sc(NS(=O)(=O)c4ccc(C=CC(=O)NO)cc4)cc3n2)cn1`: under 100 nM.
The result for `CC(=NO)c1cccc(-c2nc(N3CCOCC3)c3sc(CN(C)c4ncc(C(=O)NO)cn4)cc3n2)c1` reads 100 to 1000 nM; that for `CNc1ccc(-c2nc(N3CCOCC3)c3sc(CN(CCO)c4ncc(C(=O)NO)cn4)cc3n2)cn1`, under 100 nM.
In the case of `CN(Cc1cc2nc(-c3cccc4[nH]c(=O)[nH]c34)nc(N3CCOCC3)c2s1)c1ncc(C(=O)NO)cn1`, the IC50 is 100 to 1000 nM.
For the molecule `Cc1ncc(-c2nc(N3CCOCC3)c3sc(NCCCCC(=O)NO)cc3n2)cn1`, the IC50 is under 100 nM.
Molecule `CN(Cc1cc2nc(-c3cccc(SCCO)c3)nc(N3CCOCC3)c2s1)c1ncc(C(=O)NO)cn1` returned a concentration for half-maximal inhibition (IC50) of 100 to 1000 nM.
The result for `CN(Cc1cc2nc(-c3ccc([N+](=O)[O-])c(O)c3)nc(N3CCOCC3)c2s1)c1ncc(C(=O)NO)cn1` reads under 100 nM.
The same measure for `CN(Cc1cc2nc(-c3cnc(OCc4ccccc4)nc3)nc(N3CCOCC3)c2s1)c1ncc(C(=O)NO)cn1`: 100 to 1000 nM.
For `CS(=O)(=O)N1CCN(Cc2cc3nc(-c4cccc5[nH]ncc45)nc(NCCCCCCC(=O)NO)c3s2)CC1`, the half-maximal inhibitory concentration (IC50) is over 10000 nM.
The same measure for `CS(=O)(=O)N1CCN(Cc2cc3nc(-c4cccc5[nH]ncc45)nc(NCCCCC(=O)NO)c3s2)CC1`: over 10000 nM.
The same measure for `CCOc1ccc(-c2nc(N3CCOCC3)c3sc(CN(C)c4ncc(C(=O)NO)cn4)cc3n2)cn1`: under 100 nM; for `Nc1ccc(-c2nc(N3CCOCC3)c3sc(Nc4ncc(C(=O)NO)cn4)cc3n2)cc1`: under 100 nM; for `CCN(CC)c1ccc(-c2nc(N3CCOCC3)c3sc(CN(C)c4ncc(C(=O)NO)cn4)cc3n2)cc1`: over 10000 nM.
The same measure for `CS(=O)(=O)N1CCN(Cc2cc3nc(-c4cccc5c4cnn5CCCCCC(=O)NO)nc(N4CCOCC4)c3s2)CC1`: over 10000 nM; for `COc1ccc(-c2nc(N3CCOCC3)c3sc(NCCCCC(=O)NO)cc3n2)cn1`: under 100 nM; for `COc1ccc(-c2nc(N3CCOCC3)c3sc(CN(CCO)c4ncc(C(=O)NO)cn4)cc3n2)cn1`: under 100 nM.
The molecule `COc1ccc(Nc2nc(-c3cccc4[nH]ncc34)nc3cc(CN(C)c4ncc(C(=O)NO)cn4)sc23)cc1` had an IC50 of over 10000 nM.
The same measure for `Cc1ncc(-c2nc(N3CCOCC3)c3sc(CN(CCO)c4ncc(C(=O)NO)cn4)cc3n2)s1`: 100 to 1000 nM.
The same measure for `CC(=O)NCc1ccc(-c2nc(N3CCOCC3)c3sc(CN(C)c4ncc(C(=O)NO)cn4)cc3n2)cc1`: over 10000 nM.
The result for `CN(Cc1cc2nc(-c3ccc(S(C)(=O)=O)cc3)nc(N3CCOCC3)c2s1)c1ncc(C(=O)NO)cn1` reads over 10000 nM.
Consider `CN1CCN(c2nc(-c3cccc4[nH]ncc34)nc3cc(CN(C)c4ncc(C(=O)NO)cn4)sc23)CC1`, for which the IC50 is over 10000 nM.
The result for `CS(=O)(=O)N1CCN(Cc2cc3nc(-c4cccc5c4cnn5CCCCC(=O)NO)nc(N4CCOCC4)c3s2)CC1` reads over 10000 nM; that for `CN(Cc1cc2nc(-c3ccc(N)cc3Cl)nc(N3CCOCC3)c2s1)c1ncc(C(=O)NO)cn1`, under 100 nM.
On to `CN(Cc1cc2nc(-c3cnn(C)c3)nc(N3CCOCC3)c2s1)c1ncc(C(=O)NO)cn1`, for which the 50% inhibitory concentration (IC50) fell in the range of 100 to 1000 nM.
On to `CN(Cc1cc2nc(-c3cccc(CCO)c3)nc(N3CCOCC3)c2s1)c1ncc(C(=O)NO)cn1`, for which the half-inhibitory concentration (IC50) lay within 100 to 1000 nM.
Molecule `CNc1ccc(-c2nc(N3CCOCC3)c3sc(S(=O)(=O)NCC4CCN(c5ncc(C(=O)NO)cn5)CC4)cc3n2)cn1` yielded a half-maximal inhibitory concentration (IC50) of under 100 nM.
On to `CCCc1nc2cc(C=CC(=O)NO)ccc2n1CCN(C)Cc1cc2nc(-c3ccc(NC)nc3)nc(N3CCOCC3)c2s1`, for which the IC50 fell in the range of 100 to 1000 nM.
The same measure for `CN(Cc1cc2nc(-c3ccc(OCCO)nc3)nc(N3CCOCC3)c2s1)c1ncc(C(=O)NO)cn1`: under 100 nM; for `CN(Cc1cc2nc(-c3ccc(N4CCCC4)cc3)nc(N3CCOCC3)c2s1)c1ncc(C(=O)NO)cn1`: over 10000 nM; for `Nc1ccc(-c2nc(N3CCOCC3)c3sc(S(=O)(=O)NCC4CCN(c5ncc(C(=O)NO)cn5)CC4)cc3n2)cc1`: 100 to 1000 nM.
`CS(=O)(=O)N1CCN(Cc2cc3nc(-c4cccc5c4cnn5CCCCCCC(=O)NO)nc(N4CCOCC4)c3s2)CC1` had an IC50 of over 10000 nM.
Molecule `CC(C)OC(=O)Nc1ccc(-c2nc(N3CCOCC3)c3sc(CN(C)c4ncc(C(=O)NO)cn4)cc3n2)cc1` yielded an IC50 of over 10000 nM.
Molecule `Nc1ccc(-c2nc(N3CCOCC3)c3sc(S(=O)(=O)Nc4ncc(C(=O)NO)cn4)cc3n2)cc1` yielded a half-inhibitory concentration (IC50) of under 100 nM.
`CN(Cc1cc2nc(-c3cccc(C(=O)O)c3)nc(N3CCOCC3)c2s1)c1ncc(C(=O)NO)cn1` yielded a half-inhibitory concentration (IC50) of 100 to 1000 nM.
The molecule `Nc1ccc(-c2nc(N3CCOCC3)c3sc(CN(CCO)c4ncc(C(=O)NO)cn4)cc3n2)cn1` came in with an IC50 of under 100 nM.
Consider `CS(=O)(=O)N1CCN(Cc2cc3nc(-c4ccc(OCCCCCCC(=O)NO)cc4)nc(N4CCOCC4)c3s2)CC1`, for which the IC50 fell in the range of 100 to 1000 nM.
The result for `CNc1ccc(-c2nc(N3CCOCC3)c3sc(CN(C)Cc4nc5cc(C=CC(=O)NO)ccc5n4C)cc3n2)cn1` reads under 100 nM; that for `Nc1ccc(-c2nc(N3CCOCC3)c3sc(CN(CCO)c4ncc(C(=O)NO)cn4)cc3n2)cc1F`, under 100 nM.
Regarding `C[C@H](O)c1cccc(-c2nc(N3CCOCC3)c3sc(CN(C)c4ncc(C(=O)NO)cn4)cc3n2)c1`, the IC50 was in the range of 100 to 1000 nM.
In turn, `CC(=NO)c1ccc(F)c(-c2nc(N3CCOCC3)c3sc(CN(C)c4ncc(C(=O)NO)cn4)cc3n2)c1` had an IC50 of 100 to 1000 nM.
The result for `CNc1ccc(-c2nc(N3CCOCC3)c3sc(C(=O)NCC4CCN(c5ncc(C(=O)NO)cn5)CC4)cc3n2)cn1` reads under 100 nM.
The same measure for `CNc1ccc(-c2nc(N3CCOCC3)c3sc(N(C)c4ncc(C(=O)NO)cn4)cc3n2)cn1`: under 100 nM; for `CN(Cc1cc2nc(-c3ccc(N)c(C#N)c3)nc(N3CCOCC3)c2s1)c1ncc(C(=O)NO)cn1`: 100 to 1000 nM; for `CN(Cc1cc2nc(-c3ccc4c(c3)CCN4)nc(N3CCOCC3)c2s1)c1ncc(C(=O)NO)cn1`: over 10000 nM.
The result for `CN(Cc1cc2nc(-c3ccc4c(c3)NC(=O)CO4)nc(N3CCOCC3)c2s1)c1ncc(C(=O)NO)cn1` reads over 10000 nM; that for `CN(Cc1cc2nc(-c3cccc(NS(C)(=O)=O)c3)nc(N3CCOCC3)c2s1)c1ncc(C(=O)NO)cn1`, over 10000 nM; that for `CN(Cc1cc2nc(-c3cc(O)ccc3F)nc(N3CCOCC3)c2s1)c1ncc(C(=O)NO)cn1`, under 100 nM.
In the case of `CN(Cc1cc2nc(-c3cccc(S(=O)(=O)CCO)c3)nc(N3CCOCC3)c2s1)c1ncc(C(=O)NO)cn1`, the half-maximal inhibitory concentration (IC50) was over 10000 nM.
The result for `CNc1ncc(-c2nc(N3CCOCC3)c3sc(NCCCCC(=O)NO)cc3n2)cn1` reads under 100 nM.
The result for `Nc1ncc(-c2nc(N3CCOCC3)c3sc(NCCCCCCC(=O)NO)cc3n2)cn1` reads under 100 nM; that for `CC(=O)c1cc(-c2nc(N3CCOCC3)c3sc(CN(C)c4ncc(C(=O)NO)cn4)cc3n2)ccc1N`, 100 to 1000 nM; that for `COc1ccc(-c2nc(N3CCOCC3)c3sc(C(C)N(C)c4ncc(C(=O)NO)cn4)cc3n2)cn1` (stereo unspecified), under 100 nM.
The result for `CN(Cc1cc2nc(-c3ccc(F)cc3)nc(N3CCOCC3)c2s1)c1ncc(C(=O)NO)cn1` reads over 10000 nM.
As for `CCN(CC)c1nc(-c2cccc3[nH]ncc23)nc2cc(CN(C)c3ncc(C(=O)NO)cn3)sc12`, the IC50 is over 10000 nM.
The result for `CN(Cc1cc2nc(-c3ccc(N)cc3F)nc(N3CCOCC3)c2s1)c1ncc(C(=O)NO)cn1` reads 100 to 1000 nM; that for `COc1ccc(-c2nc(N3CCOCC3)c3sc(NS(=O)(=O)c4cccc(/C=C/C(=O)NO)c4)cc3n2)cn1`, under 100 nM.
The result for `CN(Cc1cc2nc(-c3cc(F)c(N)c(F)c3)nc(N3CCOCC3)c2s1)c1ncc(C(=O)NO)cn1` reads 100 to 1000 nM; that for `CN(Cc1cc2nc(-c3ccc(OCCN)nc3)nc(N3CCOCC3)c2s1)c1ncc(C(=O)NO)cn1`, over 10000 nM.
As to `CCCc1nc2cc(C=CC(=O)NO)ccc2n1CCN(C)Cc1cc2nc(-c3ccc(N)cc3)nc(N3CCOCC3)c2s1`, the half-inhibitory concentration (IC50) fell in the range of 100 to 1000 nM.
Turning to `CS(=O)(=O)N1CCN(Cc2cc3nc(-c4ccc(OCCCCCC(=O)NO)cc4)nc(N4CCOCC4)c3s2)CC1`, the 50% inhibitory concentration (IC50) was in the range of 100 to 1000 nM.
The same measure for `CN(Cc1cc2nc(-c3ccc(N)c(F)c3)nc(N3CCOCC3)c2s1)c1ncc(C(=O)NO)cn1`: under 100 nM.
In turn, `Nc1ncc(-c2nc(N3CCOCC3)c3sc(NS(=O)(=O)c4cccc(/C=C/C(=O)NO)c4)cc3n2)cn1` gave an IC50 of under 100 nM.
The result for `CC(O)c1cccc(-c2nc(N3CCOCC3)c3sc(CN(C)c4ncc(C(=O)NO)cn4)cc3n2)c1` (stereo unspecified) reads under 100 nM; that for `CN(Cc1cc2nc(-c3ccc(OCc4ccccc4)nc3)nc(N3CCOCC3)c2s1)c1ncc(C(=O)NO)cn1`, over 10000 nM; that for `CNc1ccc(-c2nc(N3CCOCC3)c3sc(C(C)N(C)c4ncc(C(=O)NO)cn4)cc3n2)cn1` (stereo unspecified), under 100 nM.
The result for `CN(C)CCOc1ccc(-c2nc(N3CCOCC3)c3sc(CN(C)c4ncc(C(=O)NO)cn4)cc3n2)cn1` reads over 10000 nM; that for `COc1ncc(-c2nc(N3CCOCC3)c3sc(CN(C)c4ncc(C(=O)NO)cn4)cc3n2)cn1`, under 100 nM; that for `COc1ccc(-c2nc(N3CCOCC3)c3sc(NS(=O)(=O)c4ccc(C=CC(=O)NO)cc4)cc3n2)cn1`, 100 to 1000 nM.
The same measure for `COc1ccc(-c2nc(N3CCOCC3)c3sc(S(=O)(=O)Nc4ncc(C(=O)NO)cn4)cc3n2)cn1`: under 100 nM.
